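Exposure lasted 48 hours, with cells grown in 96-well plates and compounds tested at five concentrations. Abbreviation: GI50, concentration required for 50% inhibition of growth. TGI: total growth inhibition.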
Columns and labels:
Assay in all cases: growth of human tumour cells (NCI), 48 h
MCF7 breast = test system: MCF7 breast
SR leukemia = test system: SR leukemia
786-0 renal = test system: 786-0 renal
RPMI-8226 leukemia = test system: RPMI-8226 leukemia
NCI-H226 lung = test system: NCI-H226 lung
CAKI-1 renal = test system: CAKI-1 renal
T-47D breast = test system: T-47D breast
PC-3 prostate = test system: PC-3 prostate
MDA-MB-231 breast = test system: MDA-MB-231 breast
SF-268 CNS = test system: SF-268 CNS

COc1ccc(CNC(C)C(=O)O)cc1 (configuration not stated)
TGI (MCF7 breast): > 100 µM
TGI (SR leukemia): > 100 µM
TGI (786-0 renal): > 100 µM
TGI (RPMI-8226 leukemia): > 100 µM
TGI (NCI-H226 lung): > 100 µM
TGI (CAKI-1 renal): > 100 µM
TGI (T-47D breast): > 100 µM
TGI (PC-3 prostate): > 100 µM
TGI (MDA-MB-231 breast): > 100 µM
TGI (SF-268 CNS): > 100 µM

O=S1(=O)NC2CCC3NS(=O)(=O)NC4CCC(N1)N4S(=O)(=O)N23 (configuration not stated)
TGI (MCF7 breast): > 100 µM
TGI (SR leukemia): > 100 µM
TGI (786-0 renal): > 100 µM
TGI (RPMI-8226 leukemia): > 100 µM
TGI (NCI-H226 lung): > 100 µM
TGI (CAKI-1 renal): > 100 µM
TGI (T-47D breast): > 100 µM
TGI (PC-3 prostate): > 100 µM
TGI (MDA-MB-231 breast): > 100 µM
TGI (SF-268 CNS): > 100 µM

CO[C@]12C=C/C(=C(/C(=O)OCc3cccnc3)C(=O)CCCCCCCC[C@@]3(OC)C=C/C(=C(/C(=O)OCc4cccnc4)C(=O)CCCCCCCC1)O3)O2
GI50 (MCF7 breast): 0.504 µM
TGI (MCF7 breast): 8.89 µM
GI50 (SR leukemia): 1.12 µM
TGI (SR leukemia): > 50 µM
GI50 (786-0 renal): 1.32 µM
TGI (786-0 renal): 4.71 µM
GI50 (RPMI-8226 leukemia): 1.09 µM
TGI (RPMI-8226 leukemia): 5.87 µM
GI50 (NCI-H226 lung): 1.02 µM
TGI (NCI-H226 lung): 1.94 µM
GI50 (CAKI-1 renal): 1.89 µM
TGI (CAKI-1 renal): > 50 µM
GI50 (T-47D breast): 2.21 µM
TGI (T-47D breast): > 50 µM
GI50 (PC-3 prostate): 1.74 µM
TGI (PC-3 prostate): > 50 µM
GI50 (MDA-MB-231 breast): 2.25 µM
TGI (MDA-MB-231 breast): > 50 µM
GI50 (SF-268 CNS): 1.47 µM
TGI (SF-268 CNS): 6.53 µM

COc1cc2oc(-c3ccc(O)cc3O)c(CC=C(C)C)c(=O)c2c(O)c1/C=C/C(C)C
TGI (MCF7 breast): 7.56 µM
TGI (SR leukemia): 4.44 µM
TGI (786-0 renal): 4.53 µM
TGI (RPMI-8226 leukemia): 8.73 µM
TGI (NCI-H226 lung): 9.98 µM
TGI (T-47D breast): 23.4 µM
TGI (PC-3 prostate): 8.2 µM
TGI (MDA-MB-231 breast): 6.17 µM
TGI (SF-268 CNS): 5.52 µM

CCC(CCC(C)C1CCC2C3CC=C4CC(OC5OC(CO)C(O)C(O)C5O)CCC4(C)C3CCC12C)C(C)C (configuration not stated)
TGI (MCF7 breast): > 100 µM
TGI (SR leukemia): > 100 µM
TGI (786-0 renal): > 100 µM
TGI (RPMI-8226 leukemia): > 100 µM
TGI (NCI-H226 lung): > 100 µM
TGI (CAKI-1 renal): > 100 µM
TGI (T-47D breast): > 100 µM
TGI (PC-3 prostate): > 100 µM
TGI (MDA-MB-231 breast): > 100 µM
TGI (SF-268 CNS): > 100 µM

C=C1CCC2C3(C)COC(c4c(OC)cccc4OC)OC3CCC2(C)C1C/C=C1/C(=O)OCC1O (configuration not stated)
GI50 (MCF7 breast): 2.53 µM
TGI (MCF7 breast): 12.8 µM
GI50 (SR leukemia): 1.62 µM
TGI (SR leukemia): 4.99 µM
GI50 (786-0 renal): 3.34 µM
TGI (786-0 renal): 8.88 µM
GI50 (RPMI-8226 leukemia): 2.01 µM
TGI (RPMI-8226 leukemia): 5.67 µM
GI50 (NCI-H226 lung): 2.42 µM
TGI (NCI-H226 lung): 5.81 µM
GI50 (CAKI-1 renal): 1.57 µM
TGI (CAKI-1 renal): 3.48 µM
GI50 (T-47D breast): 5.43 µM
TGI (T-47D breast): 26.9 µM
GI50 (PC-3 prostate): 2.66 µM
TGI (PC-3 prostate): 11.7 µM
GI50 (MDA-MB-231 breast): 7.57 µM
TGI (MDA-MB-231 breast): 26.4 µM
GI50 (SF-268 CNS): 3.7 µM
TGI (SF-268 CNS): 12.4 µM

CC(C)=CCC1=C(OCC(=O)O)C(=O)c2ccccc2C1=O
TGI (MCF7 breast): 96.3 µM
TGI (SR leukemia): > 100 µM
TGI (786-0 renal): > 100 µM
TGI (RPMI-8226 leukemia): > 100 µM
TGI (NCI-H226 lung): 90.1 µM
TGI (CAKI-1 renal): > 100 µM
TGI (T-47D breast): > 100 µM
TGI (PC-3 prostate): > 100 µM
TGI (MDA-MB-231 breast): > 100 µM
TGI (SF-268 CNS): 65 µM

Cc1ccc(/C=C/C(=N/N=C(N)N)c2ccccc2)cc1
GI50 (MCF7 breast): 0.465 µM
TGI (MCF7 breast): 12.4 µM
GI50 (SR leukemia): 0.897 µM
TGI (SR leukemia): 6.32 µM
GI50 (786-0 renal): 2.41 µM
TGI (786-0 renal): 6.53 µM
GI50 (RPMI-8226 leukemia): 2.3 µM
TGI (RPMI-8226 leukemia): 7.98 µM
GI50 (NCI-H226 lung): 3.09 µM
TGI (NCI-H226 lung): 12.6 µM
GI50 (CAKI-1 renal): 8.97 µM
TGI (CAKI-1 renal): 25.1 µM
GI50 (T-47D breast): 4.3 µM
TGI (T-47D breast): 18.1 µM
GI50 (PC-3 prostate): 3.32 µM
TGI (PC-3 prostate): 16.9 µM
GI50 (MDA-MB-231 breast): 1.7 µM
TGI (MDA-MB-231 breast): 4.56 µM
GI50 (SF-268 CNS): 4.13 µM
TGI (SF-268 CNS): 16.3 µM

c1ccc(CN2CCC3(CC2)SSC2(CCN(Cc4ccccc4)CC2)SS3)cc1
TGI (MCF7 breast): > 100 µM
TGI (SR leukemia): > 100 µM
TGI (786-0 renal): > 100 µM
TGI (RPMI-8226 leukemia): > 100 µM
TGI (NCI-H226 lung): > 100 µM
TGI (CAKI-1 renal): > 100 µM
TGI (T-47D breast): > 100 µM
TGI (PC-3 prostate): > 100 µM
TGI (MDA-MB-231 breast): > 100 µM
TGI (SF-268 CNS): > 100 µM

O=[N+]([O-])c1ccc(Sc2nc(Cl)nc(NC3CCCC3)n2)cc1
GI50 (MCF7 breast): > 10 µM
TGI (MCF7 breast): > 10 µM
GI50 (SR leukemia): > 10 µM
TGI (SR leukemia): > 10 µM
GI50 (786-0 renal): > 10 µM
TGI (786-0 renal): > 10 µM
GI50 (RPMI-8226 leukemia): > 10 µM
TGI (RPMI-8226 leukemia): > 10 µM
GI50 (NCI-H226 lung): > 10 µM
TGI (NCI-H226 lung): > 10 µM
GI50 (CAKI-1 renal): 3.9 µM
TGI (CAKI-1 renal): > 10 µM
GI50 (T-47D breast): > 10 µM
TGI (T-47D breast): > 10 µM
GI50 (PC-3 prostate): > 10 µM
TGI (PC-3 prostate): > 10 µM
GI50 (MDA-MB-231 breast): > 10 µM
TGI (MDA-MB-231 breast): > 10 µM
GI50 (SF-268 CNS): > 10 µM
TGI (SF-268 CNS): > 10 µM

Clc1cc2c(nn1)Nc1ccccc1S2
GI50 (MCF7 breast): > 100 µM
TGI (MCF7 breast): > 100 µM
GI50 (SR leukemia): > 100 µM
TGI (SR leukemia): > 100 µM
GI50 (786-0 renal): > 100 µM
TGI (786-0 renal): > 100 µM
GI50 (RPMI-8226 leukemia): > 100 µM
TGI (RPMI-8226 leukemia): > 100 µM
GI50 (NCI-H226 lung): > 100 µM
TGI (NCI-H226 lung): > 100 µM
GI50 (CAKI-1 renal): > 100 µM
TGI (CAKI-1 renal): > 100 µM
GI50 (T-47D breast): > 100 µM
TGI (T-47D breast): > 100 µM
GI50 (PC-3 prostate): > 100 µM
TGI (PC-3 prostate): > 100 µM
GI50 (MDA-MB-231 breast): > 100 µM
TGI (MDA-MB-231 breast): > 100 µM
GI50 (SF-268 CNS): > 100 µM
TGI (SF-268 CNS): > 100 µM

COC1=C(Br)C(O)C2(C=C1Br)CC(C(=O)NCCCCNC(=O)C1=NOC3(C=C(Br)C(OC)=C(Br)C3O)C1)=NO2 (configuration not stated)
TGI (MCF7 breast): 87.4 µM
TGI (SR leukemia): 38.9 µM
TGI (786-0 renal): > 100 µM
TGI (RPMI-8226 leukemia): 50.5 µM
TGI (NCI-H226 lung): 41.2 µM
TGI (CAKI-1 renal): > 100 µM
TGI (T-47D breast): 62.9 µM
TGI (PC-3 prostate): 62.8 µM
TGI (MDA-MB-231 breast): 66.6 µM
TGI (SF-268 CNS): 45.1 µM

NS(=O)(=O)c1ccc(NCc2cnc3ccccc3n2)cc1
TGI (MCF7 breast): > 100 µM
TGI (SR leukemia): > 100 µM
TGI (786-0 renal): > 100 µM
TGI (RPMI-8226 leukemia): > 100 µM
TGI (NCI-H226 lung): > 100 µM
TGI (CAKI-1 renal): > 100 µM
TGI (T-47D breast): > 100 µM
TGI (PC-3 prostate): > 100 µM
TGI (MDA-MB-231 breast): > 100 µM
TGI (SF-268 CNS): > 100 µM

O=c1c2c(c3ccccc3n1-c1ccccc1)NC(=S)NC2c1ccc(Cl)cc1 (configuration not stated)
GI50 (MCF7 breast): 4.75 µM
TGI (MCF7 breast): > 100 µM
GI50 (SR leukemia): 4.76 µM
TGI (SR leukemia): > 100 µM
GI50 (786-0 renal): 3.94 µM
TGI (786-0 renal): 24.4 µM
GI50 (NCI-H226 lung): 5.36 µM
TGI (NCI-H226 lung): 37.4 µM
GI50 (CAKI-1 renal): 3.16 µM
TGI (CAKI-1 renal): 27.1 µM
GI50 (T-47D breast): 20 µM
TGI (T-47D breast): > 100 µM
GI50 (PC-3 prostate): 2.68 µM
TGI (PC-3 prostate): > 100 µM
GI50 (MDA-MB-231 breast): 3.67 µM
TGI (MDA-MB-231 breast): 37.6 µM
GI50 (SF-268 CNS): 3.28 µM
TGI (SF-268 CNS): > 100 µM

NC1CCC(Nc2nc(NCc3cc(Cl)ccc3O)c3ncn(C4CCCC4)c3n2)CC1 (configuration not stated)
GI50 (MCF7 breast): 0.104 µM
TGI (MCF7 breast): 0.318 µM
GI50 (SR leukemia): 0.0422 µM
TGI (SR leukemia): 0.237 µM
GI50 (786-0 renal): 0.211 µM
TGI (786-0 renal): 0.624 µM
GI50 (RPMI-8226 leukemia): 0.202 µM
TGI (RPMI-8226 leukemia): 0.474 µM
GI50 (NCI-H226 lung): 0.247 µM
TGI (NCI-H226 lung): 2.78 µM
GI50 (CAKI-1 renal): 0.295 µM
TGI (CAKI-1 renal): 1.57 µM
GI50 (T-47D breast): 0.259 µM
TGI (T-47D breast): 0.858 µM
GI50 (PC-3 prostate): 0.16 µM
TGI (PC-3 prostate): 0.592 µM
GI50 (MDA-MB-231 breast): 0.186 µM
TGI (MDA-MB-231 breast): 0.759 µM
GI50 (SF-268 CNS): 0.188 µM
TGI (SF-268 CNS): 0.52 µM

C[C@]12CC[C@H]3[C@@H](CCC4=CC(=O)CC[C@@]43C)[C@@H]1CC[C@@H]2C(=O)COS(=O)(=O)c1ccc(Br)cc1
TGI (MCF7 breast): 22.5 µM
TGI (SR leukemia): 3.12 µM
TGI (786-0 renal): > 22.4 µM
TGI (RPMI-8226 leukemia): 12 µM
TGI (NCI-H226 lung): 39.3 µM
TGI (CAKI-1 renal): 19.7 µM
TGI (T-47D breast): 37.5 µM
TGI (PC-3 prostate): 23 µM
TGI (MDA-MB-231 breast): 17.7 µM
TGI (SF-268 CNS): 34.6 µM

Reference: PubChem BioAssay (NCI)
